Among the data in US11136349 are ring closure, conversion values, retold here.

Read-outs that look alike come from different tables or passages of the source.

The conditions of this data set: other bond.

Where the note is “from acryloyl-Ala-Tyr(tBu)-Gly-OH, 11-membered ring, Ir[dF(CF3)ppy]2(dtbbpy)PF6/K2HPO4/TRIP-SH/blue LED, DMF, 1.0 mM”, `C[C@@H]1NC(=O)CCCNC(=O)[C@H](Cc2ccc(OC(C)(C)C)cc2)NC1=O` [cyclo-[Aha-Ala-Tyr(tBu)]] returned a ring closure, conversion of 24%.
Compound `CC(C)C[C@@H]1NC(=O)[C@H](Cc2ccc(OC(C)(C)C)cc2)NC(=O)[C@H](C(C)C)NC(=O)[C@H]([C@@H](C)OC(C)(C)C)NC(=O)[C@H](C)NC(=O)[C@@H]2CCCN2C(=O)[C@H](CC(C)C)NC(=O)[C@H](Cc2ccccc2)NC(=O)[C@H](C)NC(=O)CCCNC1=O` [cyclo-[Aba-Ala-Phe-Leu-Pro-Ala-Thr(tBu)-Val-Tyr(tBu)-Leu]] displayed a ring closure, conversion (from acryloyl-Ala-Phe-Leu-Pro-Ala-Thr(tBu)-Val-Tyr(tBu)-Leu-Gly-OH, 32-membered ring, Ir[dF(CF3)ppy]2(dtbbpy)PF6/K2HPO4/blue LED, DMF, 2.5 mM) of 64%.
For the compound `CC(C)C[C@@H]1NC(=O)[C@H](Cc2ccccc2)NC(=O)C(c2ccccc2)CCNC(=O)[C@H](Cc2ccccc2)NC(=O)[C@H](C)NC1=O` (stereo partly drawn) [cyclo-[Aba(2-Ph)-Phe-Le-Ala-Phe]], the ring closure, conversion (from α-phenylacryloyl-Phe-Leu-Ala-Phe-Gly-OH, 17-membered ring, Ir[dF(CF3)ppy]2(dtbbpy)PF6/K2HPO4/blue LED, DMF, 2.5 mM) was found to be 95%.
Compound `C[C@@H]1NC(=O)[C@H](CCCNC(=NC(=O)OC(C)(C)C)NC(=O)OC(C)(C)C)NC(=O)[C@H](Cc2ccccc2)NC(=O)CCCNC(=O)[C@H](COC(C)(C)C)NC1=O` [cyclo-[Aha-Phe-Arg(Bo)2-Ser(tBu)-Ala]] registered a ring closure, conversion (from acryloyl-Phe-Arg(Boc)2-Ala-Ser(tBu)-Gly-OH, 17-membered ring, Ir[dF(CF3)ppy]2(dtbbpy)PF6/K2HPO4/TRIP-SH/blue LED, DMF, 2.5 mM) of 59%.
As for `CC(C)C[C@@H]1NC(=O)[C@H](Cc2ccccc2)NC(=O)CCC(CCC(=O)O)NC(=O)[C@H](Cc2ccccc2)NC(=O)[C@H](C)NC1=O` (stereo partly drawn) [cyclo-[Ahda-Phe-Leu-Ala-Phe]], where the note is “from acryloyl-Phe-Leu-Ala-Phe-Glu-OH, 17-membered ring, Ir[dF(CF3)ppy]2(dtbbpy)PF6/K2HPO4/blue LED, DMF, 2.5 mM”, the ring closure, conversion was determined as 38%.
Under “from acryloyl-Phe-Leu-Ala-Phe-MeLeu-OH, 17-membered ring, Ir[dF(CF3)ppy]2(dtbbpy)PF6/K2HPO4/blue LED, DMF, 5.0 mM”, `CC(C)CC1CCC(=O)N[C@@H](Cc2ccccc2)C(=O)N[C@@H](CC(C)C)C(=O)N[C@@H](C)C(=O)N[C@@H](Cc2ccccc2)C(=O)N1C` (stereo partly drawn) [cyclo-[(Me)Aba(4-iBu)-Phe-Leu-Ala-Phe]] had a ring closure, conversion of 77%.
On to `CC(C)C[C@@H]1NC(=O)[C@H](Cc2ccccc2)NC(=O)CCCNC(=O)[C@H](Cc2ccccc2)NC(=O)[C@H](C)NC1=O` [cyclo-[Aba-Phe-Leu-Ala-Phe]], for which the ring closure, conversion (from acryloyl-Phe-Leu-Ala-Phe-Gly-OH, 17-membered ring, Ir[dF(CF3)ppy]2(dtbbpy)PF6/K2HPO4/blue LED, DMF, 2.5 mM) came to 93%.
“cyclo-[Aba-Ala-Leu-Pbe-Lys(Boc)-Pro-Ala-Phe-Ala-Leu-Pro-Glu(OBu)-Leu-Phe-VaI]” displayed a ring closure, conversion (47-membered ring, Ir[dF(CF3)ppy]2(dtbbpy)PF6/K2HPO4/blue LED, DMF, 0.25 mM) of 60%.
As for `CC(C)[C@@H]1NC(=O)[C@H](Cc2ccc(OC(C)(C)C)cc2)NC(=O)[C@H](C)N(C)C(=O)[C@H](Cc2ccccc2)NC(=O)CCCNC1=O` [cyclo-[Aba-Phe-(Me)Ala-Tyr(tBu)-Val]], the ring closure, conversion (from acryloyl-Phe-MeAla-Tyr(tBu)-Val-Gly-OH, 17-membered ring, Ir[dF(CF3)ppy]2(dtbbpy)PF6/K2HPO4/blue LED, DMF, 5.0 mM) was determined as 66%.
Turning to `CC(C)C[C@@H]1NC(=O)[C@H](Cc2ccccc2)NC(=O)CCCNC(=O)[C@H](Cc2ccc(Br)cc2)NC(=O)[C@H](C)NC1=O` [cyclo-[Aba-Phe-Leu-Ai-Phe(4-Br)]], the ring closure, conversion (from acryloyl-Phe-Leu-Ala-Phe(4-Br)-Gly-OH, 17-membered ring, Ir[dF(CF3)ppy]2(dtbbpy)PF6/K2HPO4/TRIP-SH/blue LED, DMF, 2.5 mM) came out at 48%.
Regarding `CC(C)C[C@@H]1NC(=O)[C@H](Cc2ccccc2)NC(=O)CCC2(CC2)NC(=O)[C@H](Cc2ccccc2)NC(=O)[C@H](C)NC1=O` [cyclo[(3-Ac)pa-Phe-Leu-Ala-Phe]], the ring closure, conversion (from acryloyl-Phe-Leu-Ala-Phe-Acc-OH, 17-membered ring, Ir[dF(CF3)ppy]2(dtbbpy)PF6/K2HPO4/blue LED, DMSO, 2.5 mM) stood at 48%.
In turn, `CC(C)C[C@@H]1NC(=O)[C@H](Cc2ccccc2)NC(=O)CCCNC(=O)[C@H](Cc2cn(C(c3ccccc3)(c3ccccc3)c3ccccc3)cn2)NC(=O)[C@H](C)NC1=O` [cyclo-[Aba-Phe-Leu-Ala-His(Trt)]] had a ring closure, conversion (from acryloyl-Phe-Leu-Ala-His(Trt)-Gly-OH, 17-membered ring, Ir[dF(CF3)ppy]2(dtbbpy)PF6/K2HPO4/blue LED, DMF, 1.0 mM) of 65%.
Turning to `CC(C)[C@@H]1NC(=O)CCCNC(=O)[C@H](Cc2cn(C(=O)OC(C)(C)C)c3ccccc23)NC(=O)[C@H](Cc2ccccc2)NC(=O)[C@H]([C@@H](C)OC(C)(C)C)NC1=O` [cyclo-[Aba-Val-Thr(tBu)-Phe-Trp(Boc)], for the setting “from acryloyl-Val-Thr(tBu)-Phe-Trp(Boc)-Gly-OH, 17-membered ring, Ir[dF(CF3)ppy]2(dtbbpy)PF6/K2HPO4/blue LED, DMF, 2.5 mM”, the ring closure, conversion came to 56%.
`CSCC[C@@H]1NC(=O)[C@H](Cc2ccccc2)NC(=O)CCCNC(=O)[C@H](CCC(=O)OC(C)(C)C)NC(=O)[C@H](CC(C)C)NC1=O` [cyclo-[Aba-Phe-Met-Leu-Glu(OtBu)]] returned a ring closure, conversion (from acryloyl-Phe-Met-Leu-Glu(tBu)-Gly-OH, 17-membered ring, Ir[dF(CF3)ppy]2(dtbbpy)PF6/K2HPO4/TRIP-SH/blue LED, DMF, 2.5 mM) of 40%.
Regarding `C#CC[C@@H]1NC(=O)[C@H](Cc2ccccc2)NC(=O)CCCNC(=O)[C@H](CCCCNC(=O)OC(C)(C)C)NC(=O)[C@H](C)NC1=O` [cyclo-[Aba-Phe-Pra-Ala-Lys(Boc)]], where the note is “from acryloyl-Phe-Pra-Ala-Lys(Boc)-Gly-OH, 17-membered ring, Ir[dF(CF3)ppy]2(dtbbpy)PF6/K2HPO4/blue LED, DMF, 5.0 mM”, the ring closure, conversion stood at 82%.
Under “from acryloyl-Phe-Leu-Ala-Phe-Aepe-OH, 17-membered ring, Ir[dF(CF3)ppy]2(dtbbpy)PF6/K2HPO4/blue LED, DMSO, 2.5 mM”, `CC(C)C[C@@H]1NC(=O)[C@H](Cc2ccccc2)NC(=O)CCC2(CCCC2)NC(=O)[C@H](Cc2ccccc2)NC(=O)[C@H](C)NC1=O` [cyclo[(3-Aep)pa-Phe-[Leu-Aa-Phe]] came in with a ring closure, conversion of 49%.
The compound `CC(C)C[C@@H]1NC(=O)[C@H](CCC(=O)OC(C)(C)C)NC(=O)[C@@H]2CCCN2C(=O)[C@H](C)NC(=O)[C@H](Cc2ccccc2)NC(=O)CCCNC(=O)[C@H](C)NC(=O)[C@H](Cc2ccccc2)NC1=O` [cyclo-[Aba-Phe-Leu-Ala-Phe]] had a ring closure, conversion (from acryloyl-Phe-Ala-Pro-Glu(OtBu)-Leu-Phe-Ala-Gly-OH, 26-membered ring, Ir[dF(CF3)ppy]2(dtbbpy)PF6/K2HPO4/blue LED, DMF, 5.0 mM) of 61%.
Turning to `CC(C)C[C@@H]1NC(=O)[C@H](CCC(=O)NC(c2ccccc2)(c2ccccc2)c2ccccc2)NC(=O)[C@H](Cc2ccccc2)NC(=O)CCCNC(=O)[C@H](CCCCNC(=O)OC(C)(C)C)NC1=O` [cyclo-[Aba-Phe-Gln(Trt)-Leu-Lys(Boc)]], the ring closure, conversion (from acryloyl-Phe-Gln(Trt)-Leu-Lys(Boc)-Gly-OH, 17-membered ring, Ir[dF(CF3)ppy]2(dtbbpy)PF6/K2HPO4/blue LED, DMF, 2.5 mM) stood at 94%.
